Experimental data published in US20240417689A1, “ENGINEERING OF STRATIFIED CELL SHEETS USING MESENCHYMAL STEM CELLS” (Emmaus Life Sciences, Inc, priority 2021, published 2024).
“Also recorded” adds a separate entry of the source.

Key:
adipose stromal cells [1] = assay: Toxicity of ROCK inhibitor for the cells during differentiation; format: cell-based; conditions: dose response
adipose stromal cells [2] = assay: Chondrogenic differentiation of stem cells in differentiation medium supplemented with ROCK inhibitor; format: cell-based, human; conditions: for Induction of stem cell differentiation: differentiation medium supplemented with ROCK inhibitor; for Cell differentiation noticed / started, time after initial treatment with ROCK inhibitor: MesenCult-ACF Chondrogenic Differentiation medium supplemented with ROCK inhibitor, dose dependent
Method: (§1) Chondrocyte Cell Sheet: ASC were cultured with RoosterNourish™-MSC-XF, until the cells reached confluence. From that day, ASC were cultured with MesenCult™-ACF Chondrogenic Differentiation Kit (Stem Cell, Vancouver, Canada). The culture media was replaced every 2 days, up to X days from the initial seeding day depending on the technique used to engineer the cell sheet.
(§2) One of two techniques was used to complete the engineering process: 1) To stop centrifuge tension, the edges of the cell sheets were cut, and the cell sheet was left resting in almost absence of culture media (MesenCult™-ACF Chondrogenic Differentiation) to let the cell sheets' edges attached to the cell culture surface, for 20 minutes. The differentiation culture media (MesenCult™-ACF Chondrogenic Differentiation) was added to the cell culture dish and the chondrocyte cell sheet was engineered up to 21 days after the initial day of differentiation. 2) ROCK inhibitor Y-27632 at 10 μM or ROCK inhibitor Y-33075 at 1 μM were used from the first day of differentiation.

adipose stromal cells [3] = assay: Engineering of chondrocyte cell sheets with ROCK inhibitor (detachment, time of formation); format: cell-based, human; conditions: for Success in engineering the chondrocyte multilayer cell sheets: ROCK 1 and 2 inhibitors; for Detachment of the cell sheets / Time in which cell sheets were formed: Y-27632 at 10 μM or Y-33075 at 1 μM from the first day of differentiation; for Reduction of the time of differentiation: Y-27632 at 10 μM or Y-33075 at 1 μM, versus 21 days with edge cutting
Method: as §1, §2
Undifferentiated ASCCS were engineered in 10 days, using a chemically defined culture media. Differentiated ASCCS into Chondrocyte (treated with ROCK inhibitor from 1 to 20 μM), […] and osteoblast were also engineered using chemically defined and animal free culture media, in 14, 21 and 14 days, respectively. The transmittance of the ASCCS were measured over time from the time the cells reached confluence until the cell sheets were harvested.

| Structure (SMILES) | Toxicity for the cells (adipose stromal cells [1]) | Induction of stem cell differentiation (adipose stromal cells [2]) | Cell differentiation noticed / started, time after initial treatment with ROCK inhibitor (adipose stromal cells [2]) [days] | Success in engineering the chondrocyte multilayer cell sheets (adipose stromal cells [3]) | Detachment of the cell sheets (adipose stromal cells [3]) | Time in which cell sheets were formed (adipose stromal cells [3]) [weeks] | Reduction of the time of differentiation (adipose stromal cells [3]) [%] |
| --- | --- | --- | --- | --- | --- | --- | --- |
| CC(C)NC(=O)COc1cccc(-c2nc(Nc3ccc4[nH]ncc4c3)c3ccccc3n2)c1 [Belumosudil, 2-[3-[4-(1H-Indazol-5-ylamino)quinazolin-2-yl]phenoxy]-N-propan-2-ylacetamide] | toxic for the cells in a dose response, inducing cell death | failed to induce stem cell differentiation; also recorded: does not induce cell differentiation | – | – | – | – | – |
| Cc1cncc2cccc(S(=O)(=O)N3CCCNC[C@@H]3C)c12 [H-1152, (S)-4-methyl-5-((2-methyl-1,4-diazepan-1-yl)sulfonyl)isoquinoline] | – | induced the cell differentiation but it is less efficient than Y-27632 and Y-33075 | 2 | – | – | – | – |
| C[C@@H](N)[C@H]1CC[C@H](C(=O)Nc2ccncc2)CC1 [Y-27632, (1R,4r)-4-((R)-1-aminoethyl)-N-(pyridin-4-yl)cyclohexane-1-carboxamide] | – | – | 2 | used with success | didn't detach | 2 | 33 |
| C[C@@H](N)c1ccc(C(=O)Nc2ccnc3[nH]ccc23)cc1 [Y-33075, (R)-4-(1-aminoethyl)-N-(1H-pyrrolo[2,3-b]pyridin-4-yl)benzamide] | – | – | 1 | used with success | didn't detach | 2 | 33 |
